The values below come from publication PMC8713287, “Synthesis and Cytotoxic Activity of Lepidilines A–D: Comparison with Some 4,5-Diphenyl Analogues and Related Imidazole-2-thiones” (Journal of Natural Products, 2021).

The test system of data set [1] is promyelocytic leukemia HL-60. Kind of data set: MTT cytotoxicity assay, HL-60. The class given is cell-based, human. Conditions: for IC50: MTT, 48 h incubation, mean ± SEM; for HUVEC/HL-60 IC50 ratio: normal HUVEC vs HL-60. Here is the method: (§1) Potential biological activity of all four lepidilines A–D (1a–1d), as well as their 4,5-diphenyl analogues 6a[PF6], 6c[PF6], and 6d[PF6] (as hexafluorophosphate salts) and a series of imidazole-2-thiones 7 and 8 obtained therefrom, was evaluated in vitro against two human cancer cell lines: promyelocytic leukemia HL-60 and breast cancer adenocarcinoma MCF-7. Selected analogues were also tested against human umbilical vein endothelial cells (HUVECs) using the MTT cytotoxicity assay. Concentration–response analysis was performed to determine drug concentrations required to inhibit the growth of cells by 50% (IC50) after 48 h of incubation.
(§2) Human promyelocytic leukemia (HL-60) and human breast cancer adenocarcinoma (MCF-7) cell lines were obtained from the European Collection of Cell Cultures, while HUVECs were purchased from the American Type Culture Collection. HL-60 cells were cultured in RPMI 1640 plus GlutaMax I medium (Gibco/Life Technologies, Carlsbad, CA, USA). MCF-7 cells were maintained in minimum essential medium Eagle (Sigma-Aldrich, St. Louis, MO, USA) supplemented with 2 mM glutamine and Men nonessential amino acid solution (Sigma-Aldrich). Both media were supplemented with 10% heat-inactivated fetal bovine serum (Biological Industries, Beit-Haemek, Israel) and antibiotics (100 U/mL penicillin and 100 μg/mL streptomycin) (Sigma-Aldrich). HUVEC cells were grown in EGM-2 endothelial medium BulletKit (Lonza, Basel, Switzerland). Cells were maintained at 37 °C in a 5% CO2 atmosphere and were grown until 80% confluent.
(§3) The tested compounds were dissolved in sterile dimethyl sulfoxide (DMSO) and further diluted with culture medium. The final concentration of DMSO in cell cultures was less than 0.1% v/v. Controls without and with 0.1% DMSO were performed in each experiment.
(§4) The MTT assay was performed according to the known procedure.[30] The cells were incubated with the analogues for 48 h. The absorbance of the blue formazan product was measured at 560 nm using a FlexStation 3 multi-mode microplate reader (Molecular Devices, LLC, CA, USA) and compared with control (untreated cells). All experiments were performed in triplicate.
A general note: Tetrazolium assays rely on reduction of a dye to a coloured formazan, in cell work by metabolically active cells.

Data set [2] deals with breast cancer adenocarcinoma MCF-7. The data set can be described thus: MTT cytotoxicity assay, MCF-7. The class given is cell-based, human. Conditions: mean ± SEM. As to the method:
as §1, §2, §3, §4

Data set [3] deals with eight human cancer cell lines. More on the design: method as in PMID 12932133. Particulars: inactive against all those cell lines; cited from earlier work.
The test system of data set [4] is human umbilical vein endothelial cells (HUVECs). The data set can be described thus: MTT cytotoxicity assay, HUVEC. It counts as cell-based. Conditions: 48 h incubation, normal cells, mean ± SEM. Here is the method:
as §1, §2, §3, §4

A further data set concerns breast carcinoma MDA-231. On the set-up: method as in PMID 12932133. Conditions: cited from earlier work.
Data set [5] deals with pancreatic adenocarcinoma PACA2. On the set-up: method as in PMID 12932133. Conditions: cited from earlier work.
Setting [6] is: Homo sapiens, MCF7, 48 h incubation.

Counter-ions that a name gives are not always drawn.

Consider `Cc1c(C)[n+](Cc2ccccc2)cn1Cc1ccccc1` [1a, 1,3-Dibenzyl-4,5-dimethylimidazolium chloride], for which the IC50 in data set [1] (Homo sapiens, HL-60, 48 h) is 32.3 ± 3.5 µM; in data set [2] (setting [6]), greater than 100 µM; in data set [3], greater than 10 µM; in data set [4], greater than 100 µM.
As to `c1ccc(Cn2c[n+](Cc3ccccc3)c(-c3ccccc3)c2-c2ccccc2)cc1` (as salt: phosphate) [6a[PF6], 1,3-Dibenzyl-4,5-diphenylimidazolium hexafluorophosphate], the melting point lay in the range of 129 to 131 °C.
As to `c1c[n+](C23CC4CC(CC(C4)C2)C3)cn1C12CC3CC(CC(C3)C1)C2` [compound 9, 1,3-diadamantylimidazolium bromide], the 50% inhibitory concentration (IC50) in data set [1] (Homo sapiens, HL-60, 48 h) was found to be 1.8 ± 0.1 µM; in data set [2] (setting [6]) it was 51.5 ± 1.5 µM.
With `COc1cccc(Cn2c(-c3ccccc3)c(-c3ccccc3)n(Cc3ccccc3)c2=S)c1` [8c, 1-(3′-Methoxybenzyl)-3-benzyl-4,5-diphenylimidazole-2-thione], the melting point lay in the range of 52 to 55 °C. Further, it took 55 ± 5 µM to reach half-maximal inhibition in data set [1] (Homo sapiens, HL-60, 48 h) (IC50). The compound further registered an IC50 in data set [2] (setting [6]) greater than 100 µM.
Taken in the same sequence, the figures for `Cc1c(C)n(Cc2ccccc2)c(=S)n1Cc1ccccc1` [7a, 1,3-Dibenzyl-4,5-dimethylimidazole-2-thione] were 183 to 185 °C, greater than 100 µM and greater than 100 µM.
Compound `COc1cccc(C[n+]2cn(Cc3ccccc3)c(-c3ccccc3)c2-c2ccccc2)c1.[Br-]` [6c[Br], 1-Benzyl-3-(3-methoxybenzyl)-4,5-diphenylimidazolium bromide] came in with a melting point of 149 to 151 °C.
For `COc1cccc(Cn2c(C)c(C)n(Cc3ccccc3)c2=S)c1` [7c, 1-(3′-Methoxybenzyl)-3-benzyl-4,5-dimethylimidazole-2-thione], the IC50 in data set [1] (Homo sapiens, HL-60, 48 h) is 20.2 ± 1.9 µM; in data set [2] (setting [6]) it was greater than 100 µM.
In the case of `COc1cccc2c1C(=O)c1c(O)c3c(c(O)c1C2=O)C[C@@](O)(C(=O)CO)C[C@@H]3O[C@H]1C[C@H](N)[C@H](O)[C@H](C)O1` [DXR, doxorubicin, reference compound], the “fold more cytotoxic than lepidiline D” value in data set [1] (DXR vs lepidiline D, HL-60) was determined as 10 fold. In addition, the IC50 in data set [1] (Homo sapiens, HL-60, 48 h) came out at 0.12 ± 0.01 µM; in data set [2] (setting [6]), 0.9 ± 0.1 µM; in data set [4] it was 1.4 ± 0.1 µM. The “HUVEC/HL-60 IC50 ratio” value in data set [1] is on record as “about 10”.
Regarding `c1ccc(Cn2c[n+](Cc3ccccc3)c(-c3ccccc3)c2-c2ccccc2)cc1` [6a[PF6], 1,3-Dibenzyl-4,5-diphenylimidazolium hexafluorophosphate], the IC50 was found to be 1.2 ± 0.1 µM in data set [1] (Homo sapiens, HL-60, 48 h) and 8.2 ± 0.2 µM in data set [2] (setting [6]).
In turn, `COc1cccc(C[n+]2cn(Cc3ccccc3)c(C)c2C)c1` (as salt: phosphate) [1c[PF6], 1-Benzyl-3-(3-methoxybenzyl)-4,5-dimethylimidazolium hexafluorophosphate] had a melting point of 102 to 104 °C.
`COc1cccc(C[n+]2c(-c3ccccc3)c(-c3ccccc3)n(Cc3ccccc3)c2C)c1` (as salt: phosphate) [6d[PF6], 1-Benzyl-3-(3-methoxybenzyl)-2-methyl-4,5-diphenylimidazolium hexafluorophosphate]: the melting point lay in the range of 175 to 177 °C.
Turning to `COc1cccc(C[n+]2cn(Cc3ccccc3)c(-c3ccccc3)c2-c2ccccc2)c1` [6c[PF6], 1-Benzyl-3-(3-methoxybenzyl)-4,5-diphenylimidazolium hexafluorophosphate], the IC50 in data set [1] (Homo sapiens, HL-60, 48 h) is 1.2 ± 0.2 µM; in data set [2] (setting [6]) it was 7.9 ± 0.3 µM; in data set [4], 8.8 ± 0.1 µM.
For the compound `COc1cccc(C[n+]2cn(Cc3ccccc3)c(-c3ccccc3)c2-c2ccccc2)c1` (as salt: phosphate) [6c[PF6], 1-Benzyl-3-(3-methoxybenzyl)-4,5-diphenylimidazolium hexafluorophosphate], the melting point fell in the range of 78 to 81 °C.
The compound `Cc1c(C)[n+](Cc2ccccc2)c(C)n1Cc1ccccc1.[Cl-]` [1b, 1,3-Dibenzyl-2,4,5-trimethylimidazolium chloride] gave a melting point of 228 to 229 °C. In the data set on breast carcinoma MDA-231, the “IC50 MDA-231” value is 1.66 µg/mL. Also, the 50% inhibitory concentration (IC50) in the data set on breast carcinoma MDA-231 (converted from μg/mL) is 5.1 µM. Also, the “IC50 PACA2” value in data set [5] was 1.38 µg/mL. Further, the IC50 in data set [5] (converted from μg/mL) is 4.2 µM. Besides, in data set [1] (Homo sapiens, HL-60, 48 h), the IC50 turned out to be 3.8 ± 0.2 µM. Further, the IC50 in data set [2] (setting [6]) is greater than 100 µM. Besides, in data set [4], the half-maximal inhibitory concentration (IC50) was greater than 100 µM.
As to `COc1cccc(C[n+]2c(-c3ccccc3)c(-c3ccccc3)n(Cc3ccccc3)c2C)c1` [6d[PF6], 1-Benzyl-3-(3-methoxybenzyl)-2-methyl-4,5-diphenylimidazolium hexafluorophosphate], the concentration for half-maximal inhibition (IC50) in data set [1] (Homo sapiens, HL-60, 48 h) was 1.2 ± 0.1 µM; in data set [2] (setting [6]), 6.5 ± 0.2 µM.
`COc1cccc(Cn2c[n+](Cc3ccccc3)c(C)c2C)c1.[Cl-]` [1c, 1-Benzyl-3-(3-methoxybenzyl)-4,5-dimethylimidazolium chloride] yielded a melting point of 94 to 96 °C. Half-maximal inhibition in data set [1] (Homo sapiens, HL-60, 48 h) (IC50) required 27.7 ± 2.5 µM. Further, in data set [2] (setting [6]), inhibition was half-maximal at 75 ± 5 µM (IC50). This compound yielded an IC50 in data set [4] greater than 100 µM.
Take `COc1cccc(Cn2c(C)c(C)[n+](Cc3ccccc3)c2C)c1.[Cl-]` [1d, 1-Benzyl-3-(3-methoxybenzyl)-2,4,5-trimethylimidazolium chloride]: the melting point lay within 214 to 216 °C. In data set [1] (Homo sapiens, HL-60, 48 h), this compound gave an IC50 of 1.1 ± 0.1 µM. The “fold more cytotoxic for leukemia (HL-60) than for breast cancer (MCF-7) cells” value in data set [1] (MCF-7 vs HL-60) is given as “over 100 fold”. Moreover, the “HUVEC/HL-60 IC50 ratio” value in data set [1] is recorded as “over 100”. The 50% inhibitory concentration (IC50) in data set [2] (setting [6]) is greater than 100 µM. Besides, the IC50 in data set [4] was greater than 100 µM.
In the case of `COc1cccc(C[n+]2cn(Cc3ccccc3)c(C)c2C)c1` [1c[PF6], 1-Benzyl-3-(3-methoxybenzyl)-4,5-dimethylimidazolium hexafluorophosphate], the IC50 was 19.9 ± 0.2 µM in data set [1] (Homo sapiens, HL-60, 48 h) and 69.9 ± 0.2 µM in data set [2] (setting [6]).
With `S=c1n(Cc2ccccc2)c(-c2ccccc2)c(-c2ccccc2)n1Cc1ccccc1` [8a, 1,3-Dibenzyl-4,5-diphenylimidazole-2-thione], the melting point was in the range of 180 to 182 °C. 8.1 ± 0.3 µM corresponded to half-maximal inhibition in data set [1] (Homo sapiens, HL-60, 48 h) (IC50). The IC50 in data set [2] (setting [6]) is greater than 100 µM.
Consider `c1c[n+](OC23CC4CC(CC(C4)C2)C3)cn1OC12CC3CC(CC(C3)C1)C2` [compound 10], for which the IC50 in data set [1] (Homo sapiens, HL-60, 48 h) was 0.3 ± 0.1 µM; in data set [2] (setting [6]) it was 4.5 ± 0.1 µM; in data set [4], 9.1 ± 0.3 µM.
Regarding `Cc1c(C)[n+](Cc2ccccc2)cn1Cc1ccccc1` [1a[PF6]] [1,3-Dibenzyl-4,5-dimethylimidazolium hexafluorophosphate], the IC50 is 32 ± 2 µM in data set [1] and greater than 100 µM in data set [2] (48 h incubation).

The IC50 is the concentration that gives 50% inhibition. A word on the melting point: it is the temperature, or range, at which the solid turns liquid.
